Tests used:
JJ5 Breast Cancer cells [1] = assay: Growth inhibition assay against JJ5 breast cancer cells; assay type: cell-based, human; settings: cultured 4 days
Method: JJ5 breast cancer cells (prepared from BCBM JJ5) expressing approximately 10^6 epidermal growth factor receptors/cell were incubated with EGF-^111In-labeled transferrin composition, unlabeled hEGF or ^111In-oxine, centrifuged to remove free ligand, then assayed and seeded (10^6 cells/dish) into 35 mm culture dishes. Growth medium was added and the cells were cultured at 37° C./5% CO^2 for 4 days. The cells were then recovered by trypsinization and counted in a hemocytometer. Control dishes contained cells cultured in growth medium containing ^111In-DTPA or growth medium alone.

JJ5 Breast Cancer cells [2] = assay: Cytotoxicity (colony-forming) assay against JJ5 breast cancer cells; assay type: cell-based, human; settings: 14 days
Method: JJ5 breast cancer cells were incubated with increasing amounts EGF-^111In-labeled transferrin composition or ^111In-oxine, centrifuged to remove free ligand, assayed and then seeded into 50 mm culture dishes. The number of cells seeded was varied from 3×10^4 to 3×10^6 cells to obtain approximately 400 viable colonies/dish taking into account the plating efficiency and the expected level of cytotoxicity. Control dishes contained JJ5 breast cancer cells which were incubated with normal saline. Growth medium was added and the cells were cultured at 37° C./5% CO^2 for 14 days. The growth medium was removed and the colonies were stained with methylene blue (1% in a 1:1 mixture of ethanol and water) then washed twice. The number of colonies per dish was counted using a manual colony counter (Manostat Corp). The plating efficiency was calculated by dividing the number of colonies observed by the number of cells seeded in each dish. The surviving fraction at increasing amounts of EGF-^111In-labeled transferrin composition or ^111In-oxine was calculated by dividing the plating efficiency for dishes containing treated cells with that observed for control dishes with normal saline.
Using a colony-forming assay, the radiotoxicity of internalization for JJ5 breast cancer cells was evaluated.

JJ5 Breast Cancer cells [3] = assay: Binding of EGF-111In-labeled transferrin composition to breast cancer cells (radioligand binding, kinetics, retention, internalization); set-up: species or system human; settings: for binding / internalization by cancer cells (in words): JJ5 breast cancer cells
Excerpt: Breast cancer cells express up to 100-fold higher levels of EGFR than do normal epithelial tissues. EGFR expression in breast cancer bone metastasis biopsies ranged from 1-1300 fmol/mg membrane protein (approximately 400-1,000,000 receptors/cell) and was associated with high relapse rates and poor long term survival. Normal epithelial cells express <10^4 receptors/cell. For the normal breast cell line HBL-100, 8000 EGFR/cell has been reported. The expression of EGFR in breast cancer cell lines has a reported range of 800 EGFR/cell for MCF-7 cells to 10^6 EGFR/cell for MDA-MB-468 cells. […] Utilizing the Auger electron emitter In was used in the initial experiments to illustrate the utility of the invention using EGF-^111In-labeled transferrin compositions. The EGF-^111In-labeled transferrin (0.25-80 ng) was incubated with 1.5×10^6 cells/dish JJ5 Breast Cancer (prepared from BCBM JJ5) cells in 1 mL of 0.1% human serum albumin in 35 mm multiwell culture dishes at 37° C. for 30 minutes. The cells were transferred to a centrifuge tube and centrifuged. The cell pellet was separated from the supernatant and counted in a g-scintillation counter to determine bound (B) and free (F) radioactivity. Non-specific binding was determined by conducting the assay in 100 nM hEGF. The kinetics of binding was determined by incubating 1 ng of EGF-^111In-labeled transferrin composition with 3×10^6 JJ5 Breast Cancer cells at 37° C. and determining the proportion of radioactivity bound to the cells at various times up to 24 hours. Internalized fraction was measured by determining the proportion of radioactivity which could not be displaced from the cell surface by 100 nM hEGF. Cell-associated binding (surface-binding and intracellular accumulation) was expressed as a percentage of medium radioactivity bound per mg of cell study protein.
EGF-^111In-labeled transferrin composition was rapidly bound by the breast cancer cells and retained for at least 24 hours. Over a 24 hour period at 37° C., <8% was lost from the cells in vitro.

Molecule | growth inhibition of the JJ5 cells compared to the medium control (JJ5 Breast Cancer cells [1]; 3.5 pCi/cell) [%] | cell killing (JJ5 Breast Cancer cells [2]; <6 pCi/cell) | time retained by the breast cancer cells (JJ5 Breast Cancer cells [3]; 37° C., in vitro) | binding / internalization by cancer cells (in words) (JJ5 Breast Cancer cells [3]) | binding / internalization by cancer cells (in words) (JJ5 Breast Cancer cells [3]; listed as EGF-^111In-labeled transferrin compostions) | affinity constant for binding to JJ5 cells (JJ5 Breast Cancer cells [3]; association (affinity) constant, 37° C., 30 minutes, non-specific binding in 100 nM hEGF) [L/mol] | 111In radioactivity lost from the cells (JJ5 Breast Cancer cells [3]; over a 24 hour period at 37° C., in vitro) [%] | growth inhibition of the JJ5 cells compared to the medium control (JJ5 Breast Cancer cells [1]; 3.4 pCi/cell) [%] | reduction in cell survival (JJ5 Breast Cancer cells [2]; 8 pCi/cell) [%]
[In+3].[O-]c1cccc2cccnc12.[O-]c1cccc2cccnc12.[O-]c1cccc2cccnc12 [^111In oxine, reference compound] | 91 | greater than 99% | – | – | – | – | – | – | –
EGF-^111In-labeled transferrin composition: human epidermal growth factor (EGF) operatively linked via linker-biotin/streptavidin to 111In-radiolabeled human transferrin | – | – | at least 24 hours | rapidly bound | rapidly internalized | 8e+08 | < 8 | 83 | 99
